Results: patent US9670203B2 (BeiGene, LTD., priority 2013, dated 2017)

Target: B-Raf (V600E) (Homo sapiens (Human), UniProt P15056, V600E)
Experiment: Raf IC50 assay, time-resolved fluorescence energy transfer, B-Raf (V600E)
Format: biochemical
Settings: 0.1 mM ATP; read-out: IC50 (nM) B_Raf^V600E
Experimental: The enzyme was incubated with the compounds at room temperature for 60 minutes and the reactions were initiated by the addition of ATP and GST-MEK1. After reaction at room temperature for 60 minutes, an equal volume of stop/detection solution was added according to the manufacture's instruction (CisBio Bioassays). […] The IC50 for each compound was derived from fitting the dose-response % inhibition data to the four-parameter logistic model by Graphpad Prism software.

B-Raf (V600E), sequence (P15056 whole entry V600E): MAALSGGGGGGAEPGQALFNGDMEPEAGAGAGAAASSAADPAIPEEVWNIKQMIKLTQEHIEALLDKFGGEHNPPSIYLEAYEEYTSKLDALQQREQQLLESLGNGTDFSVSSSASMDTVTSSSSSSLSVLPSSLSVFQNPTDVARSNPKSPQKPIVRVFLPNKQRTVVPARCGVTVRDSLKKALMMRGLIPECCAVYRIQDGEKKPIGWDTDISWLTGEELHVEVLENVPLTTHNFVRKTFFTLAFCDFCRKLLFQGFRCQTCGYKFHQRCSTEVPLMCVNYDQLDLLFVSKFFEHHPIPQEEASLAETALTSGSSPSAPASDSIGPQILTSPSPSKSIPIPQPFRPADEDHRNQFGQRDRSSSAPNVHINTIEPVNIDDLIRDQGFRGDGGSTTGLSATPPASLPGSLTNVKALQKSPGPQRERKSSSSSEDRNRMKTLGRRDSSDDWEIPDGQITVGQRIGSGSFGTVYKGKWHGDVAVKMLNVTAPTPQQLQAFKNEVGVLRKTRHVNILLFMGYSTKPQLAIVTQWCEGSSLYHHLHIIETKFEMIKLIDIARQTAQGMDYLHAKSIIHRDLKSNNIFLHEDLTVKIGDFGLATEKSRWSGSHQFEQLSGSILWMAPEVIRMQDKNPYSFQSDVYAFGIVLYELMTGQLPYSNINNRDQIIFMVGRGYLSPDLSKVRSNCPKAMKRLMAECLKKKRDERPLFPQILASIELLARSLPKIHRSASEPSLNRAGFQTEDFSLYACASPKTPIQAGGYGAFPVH

SMILES | IC50 [nM]
O=C(Nc1ccc(F)c(C(F)(F)F)c1)N[C@@H]1[C@H]2Oc3ccc(Oc4ncnc5[nH]cnc45)cc3[C@@H]12 [Compound 2.12, 1-((1S,1aS,6bS)-5-((9H-purin-6-yl)oxy)-1a,6b-dihydro-1H-cyclopropa[b]benzofuran-1-yl)-3-(4-fluoro-3-(trifluoromethyl)phenyl)urea] | 10
O=C1CCc2c(Oc3ccc4c(c3)[C@@H]3[C@@H](NC(=O)Nc5cc(C(F)(F)F)ccn5)[C@@H]3O4)ccnc2N1 [Compound 1.72] | 1.9
COc1ccc(Cl)c(NC(=O)N[C@@H]2[C@H]3Oc4ccc(Oc5ccnc6c5CCC(=O)N6)cc4[C@@H]23)c1 [Compound 1.5] | 2.2
CNC(=O)c1cc(Oc2ccc3c(c2)[C@H]2[C@H](NC(=O)Nc4ccc(Cl)c(C(F)(F)F)c4)[C@H]2O3)ccn1 [Compound 2.16] | 88
O=C1CCc2c(Oc3ccc4c(c3)[C@H]3[C@H](NC(=O)Nc5cccc([N+](=O)[O-])c5)[C@H]3O4)ccnc2N1 [Compound 1.13] | 1.8
O=C1CCc2c(Oc3ccc4c(c3)[C@H]3[C@H](NC(=O)Nc5cc(Br)ccc5Cl)[C@H]3O4)ccnc2N1 [Compound 1.8] | 8.7
CN1CCC(NC(=O)N[C@@H]2[C@H]3Oc4ccc(Oc5ccnc6c5CCC(=O)N6)cc4[C@@H]23)CC1 [Compound 1.68] | 20
O=C(Nc1ccc(F)cc1F)N[C@@H]1[C@H]2Oc3ccc(Oc4ccncn4)cc3[C@@H]12 [Compound 2.1, 1-(2,4-difluorophenyl)-3-((1S,1aS,6bS)-5-(pyrimidin-4-yloxy)-1a,6b-dihydro-1H-cyclopropa[b]benzofuran-1-yl)urea] | 1100
CN1CCN(Cc2ccc(NC(=O)N[C@@H]3[C@H]4Oc5ccc(Oc6ccnc7c6CCC(=O)N7)cc5[C@@H]34)cc2)CC1 [Compound 1.63] | > 5000
CN1CCN(c2ccc(NC(=O)N[C@@H]3[C@H]4Oc5ccc(Oc6ccnc7c6CCC(=O)N7)cc5[C@@H]34)cc2C(F)(F)F)CC1 [Compound 1.86, 1-(4-(4-methylpiperazin-1-yl)-3-(trifluoromethyl)phenyl)-3-((1S,1aS,6bS)-5-((7-oxo-5,6,7,8-tetrahydro-1,8-naphthyridin-4-yl)oxy)-1a,6b-dihydro-1H-cyclopropa[b]benzofuran-1-yl)urea] | 183
Cc1ccncc1NC(=O)N[C@@H]1[C@H]2Oc3ccc(Oc4ccnc5c4CCC(=O)N5)cc3[C@@H]12 [Compound 1.39] | 2.6
COc1ccc(NC(=O)N[C@@H]2[C@H]3Oc4ccc(Oc5ccnc6c5CCC(=O)N6)cc4[C@@H]23)cc1OC [Compound 1.15] | 2.3
O=C(Nc1ccc(F)cc1F)N[C@@H]1[C@H]2Oc3ccc(Oc4ncnc5[nH]cnc45)cc3[C@@H]12 [Compound 2.13] | 24
O=C1CCc2c(Oc3ccc4c(c3)[C@H]3[C@H](NC(=O)Nc5ccc6c(c5)CCC6)[C@H]3O4)ccnc2N1 [Compound 1.16] | 2.6
COc1ccc(NC(=O)N[C@@H]2[C@H]3Oc4ccc(Oc5ccnc6c5CCC(=O)N6)cc4[C@@H]23)cc1 [Compound 1.50] | 0.8
COc1ccc(NC(=O)N[C@@H]2[C@H]3Oc4ccc(Oc5ccnc6c5CCC(=O)N6)cc4[C@@H]23)c(Cl)c1 [Compound 1.4] | 1.8
O=C1CCc2c(Oc3ccc4c(c3)[C@H]3[C@H](NC(=O)NCc5ccc(C(F)(F)F)cc5)[C@H]3O4)ccnc2N1 [Compound 1.56] | 158
CN(C)Cc1ccc(NC(=O)N[C@@H]2[C@H]3Oc4ccc(Oc5ccnc6c5CCC(=O)N6)cc4[C@@H]23)cc1 [Compound 1.26] | 2680

SMILES | IC50 [nM]
O=C1CCc2c(Oc3ccc4c(c3)[C@H]3[C@H](NC(=O)Nc5ccncn5)[C@H]3O4)ccnc2N1 [Compound 1.36] | 1.3
O=C(Nc1cc(F)c(F)cc1F)N[C@@H]1[C@H]2Oc3ccc(Oc4ccncc4)cc3[C@@H]12 [Compound 2.10] | 50
COc1cc(NC(=O)N[C@@H]2[C@H]3Oc4ccc(Oc5ccnc6c5CCC(=O)N6)cc4[C@@H]23)cc(OC)c1 [Compound 1.17] | 1.5
O=C(Nc1ccc(F)c(F)c1)N[C@@H]1[C@H]2Oc3ccc(Oc4ccncn4)cc3[C@@H]12 [Compound 2.2] | 111
O=C1CCc2c(Oc3ccc4c(c3)[C@H]3[C@H](NC(=O)Nc5ccc(Br)cc5Cl)[C@H]3O4)ccnc2N1 [Compound 1.10] | 6.3
O=C1CCc2c(Oc3ccc4c(c3)[C@H]3[C@H](NC(=O)Nc5cc(Cl)ccn5)[C@H]3O4)ccnc2N1 [Compound 1.37] | 0.85
CCN1CCN(c2ccc(NC(=O)N[C@@H]3[C@H]4Oc5ccc(Oc6ccnc7c6CCC(=O)N7)cc5[C@@H]34)cc2C(F)(F)F)CC1 [Compound 1.87] | 227
O=C(Nc1ccc(F)c(C(F)(F)F)c1)N[C@@H]1[C@H]2Oc3ccc(Oc4ccncc4)cc3[C@@H]12 [Compound 2.9] | 24
O=C(Nc1cccc(C(F)(F)F)c1)N[C@@H]1[C@H]2Oc3ccc(Oc4ccncc4)cc3[C@@H]12 [Compound 2.11] | 58
Nc1cc(Oc2ccc3c(c2)[C@H]2[C@H](NC(=O)Nc4ccc(F)cc4F)[C@H]2O3)ccn1 [Compound 2.14, 1-((1S,1aS,6bS)-5-((2-aminopyridin-4-yl)oxy)-1a,6b-dihydro-1H-cyclopropa[b]benzofuran-1-yl)-3-(2,4-difluorophenyl)urea] | 36
O=C1CCc2c(Oc3ccc4c(c3)[C@H]3[C@H](NC(=O)Nc5cc(C(F)(F)F)cc(C(F)(F)F)c5)[C@H]3O4)ccnc2N1 [Compound 1.65] | 116
O=C1CCc2c(Oc3ccc4c(c3)[C@H]3[C@H](NC(=O)Nc5ccc(C(F)(F)F)cn5)[C@H]3O4)ccnc2N1 [Compound 1.38] | 4
CC(C)(C)c1ccc(NC(=O)N[C@@H]2[C@H]3Oc4ccc(Oc5ccnc6c5CCC(=O)N6)cc4[C@@H]23)cc1 [Compound 1.18] | 16
O=C1CCc2c(Oc3ccc4c(c3)[C@H]3[C@H](NC(=O)NC5CC5)[C@H]3O4)ccnc2N1 [Compound 1.69] | 30
COc1cc(NC(=O)N[C@@H]2[C@H]3Oc4ccc(Oc5ccnc6c5CCC(=O)N6)cc4[C@@H]23)c(Cl)cc1Cl [Compound 1.27] | 11
CCCCCCCCCCNC(=O)N[C@@H]1[C@H]2Oc3ccc(Oc4ccnc5c4CCC(=O)N5)cc3[C@@H]12 [Compound 1.85] | 129
CCN1CCN(Cc2ccc(NC(=O)N[C@@H]3[C@H]4Oc5ccc(Oc6ccnc7c6CCC(=O)N7)cc5[C@@H]34)cc2F)CC1 [Compound 1.74] | 821
O=C1CCc2c(Oc3ccc4c(c3)[C@H]3[C@H](NC(=O)Nc5ccc(C(F)(F)F)c(F)c5)[C@H]3O4)ccnc2N1 [Compound 1.64] | 27
